According to publication PMC9186362, “Design and biological evaluation of substituted 5,7-dihydro-6H-indolo[2,3-c]quinolin-6-one as novel selective Haspin inhibitors” (Journal of Enzyme Inhibition and Medicinal Chemistry, 2022):

Key:
STK39 (STLK3) = molecular target: T1, STK39 (STLK3) (Homo sapiens, UniProt Q9UEW8); assay: LanthaScreen Binding - Eu-anti-His; conditions: read-out: Percentage of inhibition
T1 construct: purchased Life Technologies (SelectScreen service)
Procedure: (§1) We further evaluated the selectivity profile of compound 55 on a larger panel of kinases (SelectScreen Whole Panel, Life Technologies). The inhibition profile of 55, evaluated at 1 μM, is depicted on a dendrogram on Figure 3 where kinases inhibited by a minimum of 80% are shown. A full list of the kinases tested is shown on Table S1 in supplementary information.

RIPK2 = RIPK2 (Homo sapiens, UniProt O43353); assay: LanthaScreen Binding - Eu-anti-His; conditions: read-out: Percentage of inhibition
Procedure: as §1

[1] = molecular target: T2, MAP2K1 (MEK1) S218D S222D (Homo sapiens, UniProt Q02750, S218D/S222D); assay: LanthaScreen Binding - Eu-anti-His; conditions: read-out: Percentage of inhibition
T2 construct: purchased Life Technologies (SelectScreen Whole Panel)
Procedure: as §1

CLK4 = molecular target: T3, CLK4 (Homo sapiens, UniProt Q9HAZ1); assay: LanthaScreen Binding - Eu-anti-His; conditions: read-out: Percentage of inhibition
T3 construct: purchased Life Technologies (SelectScreen Whole Panel)
Procedure: as §1

MAP2K1 (MEK1) = molecular target: T4, MAP2K1 (MEK1) (Homo sapiens, UniProt Q02750); assay: LanthaScreen Binding - Eu-anti-His; conditions: read-out: Percentage of inhibition
T4 construct: purchased Life Technologies (SelectScreen Whole Panel)
T4 sequence (Q02750 whole entry): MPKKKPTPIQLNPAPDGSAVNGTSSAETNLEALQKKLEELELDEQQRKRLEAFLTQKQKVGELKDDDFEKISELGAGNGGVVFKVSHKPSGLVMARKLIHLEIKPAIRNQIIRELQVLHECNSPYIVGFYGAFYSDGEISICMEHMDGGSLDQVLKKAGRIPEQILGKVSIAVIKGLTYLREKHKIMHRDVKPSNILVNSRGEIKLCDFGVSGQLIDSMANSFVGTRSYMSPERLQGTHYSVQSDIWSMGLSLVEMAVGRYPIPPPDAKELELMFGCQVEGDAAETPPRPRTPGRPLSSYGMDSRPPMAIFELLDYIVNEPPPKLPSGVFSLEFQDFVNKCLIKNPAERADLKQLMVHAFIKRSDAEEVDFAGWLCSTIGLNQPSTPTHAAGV
Procedure: as §1

CDK9/cyclin K = CDK9/cyclin K (Homo sapiens, UniProt P50750); assay: LanthaScreen Binding - Eu-anti-His; conditions: read-out: Percentage of inhibition
Procedure: as §1

CDK8/cyclin C = molecular target: T5, CDK8/cyclin C (Homo sapiens, UniProt P49336); assay: LanthaScreen Binding - Eu-anti-His; conditions: read-out: Percentage of inhibition
T5 construct: purchased Life Technologies
Procedure: as §1

AMPK (A2/B2/G1) = molecular target: T6, AMPK (A2/B2/G1) (Homo sapiens, UniProt P54646); assay: LanthaScreen Binding - Eu-anti-His; conditions: read-out: Percentage of inhibition
T6 construct: purchased Life Technologies (SelectScreen service)
Procedure: as §1

AMPK (A2/B2/G2) = molecular target: T7, AMPK (A2/B2/G2) (Homo sapiens, UniProt P54646); assay: LanthaScreen Binding - Eu-anti-His; conditions: read-out: Percentage of inhibition
T7 construct: purchased Life Technologies (SelectScreen service)
Procedure: as §1

MAPK8 (JNK1) = molecular target: T8, MAPK8 (JNK1) (Homo sapiens, UniProt P45983); assay: LanthaScreen Binding - Eu-anti-His; conditions: read-out: Percentage of inhibition
T8 construct: purchased Life Technologies (SelectScreen Whole Panel service)
Procedure: as §1

STK33 = molecular target: T9, STK33 (Homo sapiens, UniProt Q9BYT3); assay: LanthaScreen Binding - Eu-anti-His; conditions: read-out: Percentage of inhibition
T9 construct: purchased Life Technologies (SelectScreen Whole Panel service)
Procedure: as §1

BMPR2 = molecular target: T10, BMPR2 (Homo sapiens, UniProt Q13873); assay: LanthaScreen Binding - Eu-anti-His; conditions: read-out: Percentage of inhibition
T10 construct: purchased Life Technologies (SelectScreen Whole Panel)
Procedure: as §1

ULK3 = molecular target: T11, ULK3 (Homo sapiens, UniProt Q6PHR2); assay: LanthaScreen Binding - Eu-anti-His; conditions: read-out: Percentage of inhibition
T11 construct: purchased Life Technologies (SelectScreen Whole Panel service)
Procedure: as §1

MAP2K2 (MEK2) = molecular target: T12, MAP2K2 (MEK2) (Homo sapiens, UniProt P36507); assay: LanthaScreen Binding - Eu-anti-His; conditions: read-out: Percentage of inhibition
T12 construct: purchased Life Technologies
Procedure: as §1

PKMYT1 = PKMYT1 (Homo sapiens, UniProt Q99640); assay: LanthaScreen Binding - Eu-anti-GST; conditions: read-out: Percentage of inhibition
Procedure, shortened: (§2)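 Readout is % inhibition. The inhibitor was applied at 1 μM against every kinase of an extensive commercial panel.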

MAP3K10 (MLK2) = MAP3K10 (MLK2) (Homo sapiens, UniProt Q02779); assay: LanthaScreen Binding - Eu-anti-GST; conditions: read-out: Percentage of inhibition
Chain of MAP3K10 (MLK2) (Q02779 whole entry): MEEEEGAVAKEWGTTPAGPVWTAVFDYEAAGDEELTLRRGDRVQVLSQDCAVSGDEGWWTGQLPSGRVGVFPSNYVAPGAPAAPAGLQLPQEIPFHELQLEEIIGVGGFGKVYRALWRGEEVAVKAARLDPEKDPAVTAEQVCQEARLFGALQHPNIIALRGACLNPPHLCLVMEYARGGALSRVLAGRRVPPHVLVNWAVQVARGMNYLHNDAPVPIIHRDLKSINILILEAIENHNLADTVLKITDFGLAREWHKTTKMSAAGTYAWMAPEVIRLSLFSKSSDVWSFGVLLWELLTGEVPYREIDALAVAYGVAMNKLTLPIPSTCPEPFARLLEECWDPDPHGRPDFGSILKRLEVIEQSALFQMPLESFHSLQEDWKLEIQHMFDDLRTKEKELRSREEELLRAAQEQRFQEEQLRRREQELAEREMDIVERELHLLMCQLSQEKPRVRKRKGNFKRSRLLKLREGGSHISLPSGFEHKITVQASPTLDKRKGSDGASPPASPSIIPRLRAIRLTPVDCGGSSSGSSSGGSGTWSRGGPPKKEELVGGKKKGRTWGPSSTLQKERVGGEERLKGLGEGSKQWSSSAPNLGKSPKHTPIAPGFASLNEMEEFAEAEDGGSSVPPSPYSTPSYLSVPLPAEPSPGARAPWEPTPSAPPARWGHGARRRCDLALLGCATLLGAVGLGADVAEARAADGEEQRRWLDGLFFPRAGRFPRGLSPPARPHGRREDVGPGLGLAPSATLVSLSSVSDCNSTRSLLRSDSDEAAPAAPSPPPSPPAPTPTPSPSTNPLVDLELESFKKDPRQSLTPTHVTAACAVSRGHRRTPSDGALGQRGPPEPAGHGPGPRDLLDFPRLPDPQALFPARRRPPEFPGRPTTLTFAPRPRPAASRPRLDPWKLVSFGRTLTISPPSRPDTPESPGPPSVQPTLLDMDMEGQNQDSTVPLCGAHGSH
Procedure, shortened: as §2

TEK (TIE2) R849W = molecular target: T13, TEK (TIE2) R849W (Homo sapiens, UniProt Q02763, R849W); assay: LanthaScreen Binding - Eu-anti-GST; conditions: read-out: Percentage of inhibition
T13 construct: purchased Life Technologies (SelectScreen Whole Panel service)
T13 sequence (Q02763 23-1124 R849W): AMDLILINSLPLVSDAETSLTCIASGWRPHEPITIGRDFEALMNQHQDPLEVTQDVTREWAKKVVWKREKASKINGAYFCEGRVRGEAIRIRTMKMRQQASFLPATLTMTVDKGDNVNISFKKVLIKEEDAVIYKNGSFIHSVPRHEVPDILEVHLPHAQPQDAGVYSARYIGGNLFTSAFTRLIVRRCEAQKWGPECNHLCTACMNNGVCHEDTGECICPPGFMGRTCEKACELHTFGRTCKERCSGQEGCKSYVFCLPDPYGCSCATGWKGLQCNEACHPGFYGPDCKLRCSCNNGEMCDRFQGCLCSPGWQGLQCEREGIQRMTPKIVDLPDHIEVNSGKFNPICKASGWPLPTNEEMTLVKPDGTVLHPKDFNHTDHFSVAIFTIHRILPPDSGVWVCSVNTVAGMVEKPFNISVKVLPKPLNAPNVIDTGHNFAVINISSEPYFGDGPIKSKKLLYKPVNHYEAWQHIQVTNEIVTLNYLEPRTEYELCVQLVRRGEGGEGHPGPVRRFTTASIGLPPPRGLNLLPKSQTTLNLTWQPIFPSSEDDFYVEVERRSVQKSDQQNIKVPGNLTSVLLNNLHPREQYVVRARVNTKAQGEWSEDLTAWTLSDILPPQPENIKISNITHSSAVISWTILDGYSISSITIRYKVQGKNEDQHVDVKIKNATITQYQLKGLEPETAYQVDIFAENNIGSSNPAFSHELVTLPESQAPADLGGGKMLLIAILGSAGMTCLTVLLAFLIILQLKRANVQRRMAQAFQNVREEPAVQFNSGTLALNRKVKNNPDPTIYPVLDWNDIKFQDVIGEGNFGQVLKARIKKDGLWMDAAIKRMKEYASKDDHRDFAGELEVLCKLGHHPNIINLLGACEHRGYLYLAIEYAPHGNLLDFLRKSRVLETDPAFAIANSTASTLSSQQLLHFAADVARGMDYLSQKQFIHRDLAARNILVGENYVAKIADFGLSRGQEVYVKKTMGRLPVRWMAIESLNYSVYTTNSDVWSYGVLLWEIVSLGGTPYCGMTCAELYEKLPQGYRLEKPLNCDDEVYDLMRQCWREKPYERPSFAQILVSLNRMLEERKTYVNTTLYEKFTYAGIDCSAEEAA
Procedure, shortened: as §2

TAOK3 (JIK) = molecular target: T14, TAOK3 (JIK) (Homo sapiens, UniProt Q9H2K8); assay: LanthaScreen Binding - Eu-anti-GST; conditions: read-out: Percentage of inhibition
T14 construct: purchased Life Technologies (SelectScreen service)
Procedure, shortened: as §2

FGFR3 G697C = molecular target: T15, FGFR3 G697C (Homo sapiens, UniProt P22607, G697C); assay: LanthaScreen Binding - Eu-anti-GST; conditions: read-out: Percentage of inhibition
T15 construct: purchased Life Technologies
Procedure, shortened: as §2

MAPK10 (JNK3) = molecular target: T16, MAPK10 (JNK3) (Homo sapiens, UniProt P53779); assay: LanthaScreen Binding - Eu-anti-GST; conditions: read-out: Percentage of inhibition
T16 construct: purchased Life Technologies
Procedure, shortened: as §2

ALK F1174L = molecular target: T17, ALK F1174L (Homo sapiens, UniProt Q9UM73, F1174L); assay: LanthaScreen Binding - Eu-anti-GST; conditions: read-out: Percentage of inhibition
T17 construct: purchased Life Technologies
Procedure, shortened: as §2

MAP2K5 (MEK5) = molecular target: T18, MAP2K5 (MEK5) (Homo sapiens, UniProt Q13163); assay: LanthaScreen Binding - Eu-anti-GST; conditions: read-out: Percentage of inhibition
T18 construct: purchased Life Technologies (SelectScreen service)
T18 sequence (Q13163 whole entry): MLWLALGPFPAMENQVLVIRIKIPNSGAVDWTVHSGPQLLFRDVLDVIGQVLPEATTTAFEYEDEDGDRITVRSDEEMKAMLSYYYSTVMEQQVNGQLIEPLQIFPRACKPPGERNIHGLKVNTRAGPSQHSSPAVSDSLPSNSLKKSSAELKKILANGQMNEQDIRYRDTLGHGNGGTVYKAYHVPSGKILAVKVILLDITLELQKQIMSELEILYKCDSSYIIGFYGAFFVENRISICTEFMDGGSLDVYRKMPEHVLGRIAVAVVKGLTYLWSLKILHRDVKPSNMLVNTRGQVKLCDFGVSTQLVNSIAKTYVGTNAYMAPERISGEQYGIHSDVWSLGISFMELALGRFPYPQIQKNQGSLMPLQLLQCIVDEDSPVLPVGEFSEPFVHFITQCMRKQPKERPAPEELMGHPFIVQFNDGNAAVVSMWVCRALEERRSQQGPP
Procedure, shortened: as §2

MAP2K4 (MEK4) = molecular target: T19, MAP2K4 (MEK4) (Homo sapiens, UniProt P45985); assay: LanthaScreen Binding - Eu-anti-GST; conditions: read-out: Percentage of inhibition
T19 construct: purchased Life Technologies (SelectScreen service)
Procedure, shortened: as §2

STK38L (NDR2) = molecular target: T20, STK38L (NDR2) (Homo sapiens, UniProt Q9Y2H1); assay: LanthaScreen Binding - Eu-anti-GST; conditions: read-out: Percentage of inhibition
T20 construct: purchased Life Technologies (SelectScreen)
Procedure, shortened: as §2

MYLK (MLCK) = MYLK (MLCK) (Homo sapiens, UniProt Q15746); assay: LanthaScreen Binding - Eu-anti-GST; conditions: read-out: Percentage of inhibition
Chain of MYLK (MLCK) (Q15746 whole entry): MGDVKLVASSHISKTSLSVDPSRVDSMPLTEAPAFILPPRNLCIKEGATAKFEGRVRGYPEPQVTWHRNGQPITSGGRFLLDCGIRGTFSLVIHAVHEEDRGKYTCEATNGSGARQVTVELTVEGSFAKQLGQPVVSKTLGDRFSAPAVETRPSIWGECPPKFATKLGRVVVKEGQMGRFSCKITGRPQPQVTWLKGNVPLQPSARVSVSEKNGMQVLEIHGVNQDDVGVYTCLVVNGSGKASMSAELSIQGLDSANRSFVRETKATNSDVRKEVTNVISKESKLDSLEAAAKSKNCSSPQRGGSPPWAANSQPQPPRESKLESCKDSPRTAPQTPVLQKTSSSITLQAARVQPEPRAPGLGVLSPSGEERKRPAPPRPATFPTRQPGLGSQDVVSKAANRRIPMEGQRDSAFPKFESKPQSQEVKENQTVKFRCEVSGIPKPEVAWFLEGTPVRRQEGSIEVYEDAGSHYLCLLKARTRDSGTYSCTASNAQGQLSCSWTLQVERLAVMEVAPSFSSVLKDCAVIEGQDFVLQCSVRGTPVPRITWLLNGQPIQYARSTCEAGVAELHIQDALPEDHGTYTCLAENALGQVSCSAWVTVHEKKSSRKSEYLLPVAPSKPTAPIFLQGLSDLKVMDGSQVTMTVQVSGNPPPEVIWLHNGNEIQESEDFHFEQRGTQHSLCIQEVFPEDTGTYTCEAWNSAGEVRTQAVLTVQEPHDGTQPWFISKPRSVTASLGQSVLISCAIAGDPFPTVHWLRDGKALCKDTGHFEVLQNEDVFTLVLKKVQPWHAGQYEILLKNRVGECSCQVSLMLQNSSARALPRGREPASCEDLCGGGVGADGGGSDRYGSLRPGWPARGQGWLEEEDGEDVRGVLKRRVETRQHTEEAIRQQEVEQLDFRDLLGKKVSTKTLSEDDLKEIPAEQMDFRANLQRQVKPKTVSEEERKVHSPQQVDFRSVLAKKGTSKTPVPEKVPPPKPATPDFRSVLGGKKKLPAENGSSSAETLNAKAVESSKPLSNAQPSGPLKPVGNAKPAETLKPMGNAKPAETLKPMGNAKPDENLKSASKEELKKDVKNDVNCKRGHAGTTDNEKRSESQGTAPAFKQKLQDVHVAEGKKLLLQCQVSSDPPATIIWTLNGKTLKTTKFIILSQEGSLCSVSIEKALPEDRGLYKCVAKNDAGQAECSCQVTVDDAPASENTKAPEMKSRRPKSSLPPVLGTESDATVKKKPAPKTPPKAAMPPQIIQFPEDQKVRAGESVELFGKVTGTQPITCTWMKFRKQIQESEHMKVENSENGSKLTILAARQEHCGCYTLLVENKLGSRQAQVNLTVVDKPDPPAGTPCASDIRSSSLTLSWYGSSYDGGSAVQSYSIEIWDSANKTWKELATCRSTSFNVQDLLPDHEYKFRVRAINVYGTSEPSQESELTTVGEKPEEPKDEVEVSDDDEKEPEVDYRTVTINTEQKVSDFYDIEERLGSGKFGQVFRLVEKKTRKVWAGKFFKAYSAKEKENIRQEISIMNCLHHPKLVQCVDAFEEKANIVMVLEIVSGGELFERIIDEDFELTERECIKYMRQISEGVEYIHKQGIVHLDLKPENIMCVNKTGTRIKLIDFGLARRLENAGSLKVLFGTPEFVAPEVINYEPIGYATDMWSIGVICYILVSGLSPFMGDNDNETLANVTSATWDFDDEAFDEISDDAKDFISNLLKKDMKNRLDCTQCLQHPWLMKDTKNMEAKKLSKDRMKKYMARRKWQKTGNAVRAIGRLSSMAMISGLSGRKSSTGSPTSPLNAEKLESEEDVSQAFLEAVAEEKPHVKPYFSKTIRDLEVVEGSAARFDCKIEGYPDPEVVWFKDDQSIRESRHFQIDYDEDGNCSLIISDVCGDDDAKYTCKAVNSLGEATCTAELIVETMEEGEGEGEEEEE
Procedure, shortened: as §2

TEK (TIE2) Y1108F = TEK (TIE2) Y1108F (Homo sapiens, UniProt Q02763, Y1108F); assay: LanthaScreen Binding - Eu-anti-GST; conditions: read-out: Percentage of inhibition
Chain of TEK (TIE2) Y1108F (Q02763 23-1124 Y1108F): as the sequence (Q02763 23-1124 R849W) above, with W827R, Y1086F counted along it
Procedure, shortened: as §2

MERTK (cMER) A708S = molecular target: T21, MERTK (cMER) A708S (Homo sapiens, UniProt Q12866, A708S); assay: LanthaScreen Binding - Eu-anti-GST; conditions: read-out: Percentage of inhibition
T21 construct: purchased Life Technologies
Procedure, shortened: as §2

RIPK3 = molecular target: T22, RIPK3 (Homo sapiens, UniProt Q9Y572); assay: LanthaScreen Binding - Eu-anti-GST; conditions: read-out: Percentage of inhibition
T22 construct: purchased Life Technologies (SelectScreen Whole Panel)
Procedure, shortened: as §2

EPHA7 = molecular target: T23, EPHA7 (Homo sapiens, UniProt Q15375); assay: LanthaScreen Binding - Eu-anti-GST; conditions: read-out: Percentage of inhibition
T23 construct: purchased Life Technologies (SelectScreen service)
Procedure, shortened: as §2

CDK2/cyclin O = CDK2/cyclin O (Homo sapiens, UniProt P24941); assay: LanthaScreen Binding - Eu-anti-GST; conditions: read-out: Percentage of inhibition
Procedure, shortened: as §2

DMPK = DMPK (Homo sapiens, UniProt Q09013); assay: LanthaScreen Binding - Eu-anti-GST; conditions: read-out: Percentage of inhibition
Procedure, shortened: as §2

HUNK = HUNK (Homo sapiens, UniProt P57058); assay: LanthaScreen Binding - Eu-anti-GST; conditions: read-out: Percentage of inhibition
Procedure, shortened: as §2

ACVRL1 (ALK1) = molecular target: T24, ACVRL1 (ALK1) (Homo sapiens, UniProt P37023); assay: LanthaScreen Binding - Eu-anti-GST; conditions: read-out: Percentage of inhibition
T24 construct: purchased Life Technologies (SelectScreen service)
Procedure, shortened: as §2

panel of 486 kinases = assay: SelectScreen Whole Panel selectivity profile; assay type: biochemical; conditions: 1 µM
Procedure: as §1

HCT116 spheroids = assay: 3D spheroid viability; assay type: cell-based, human; conditions: 2.5, 5 and 10 µM single dose, 7 days
Procedure: (§3) U-2 OS cells were seeded at 5000 cells per well and HCT116 at 1500 cells per well, in 96-well black ULA plates (Ultra Low Adherence, Corning). After centrifugation at 200 g for 10 min, spheroids were incubated at 37 °C for 3 days in order to reach 400 µm in diameter. Compounds were then added at a single dose (2.5, 5, or 10 μM) and cell viability was measured after 7 days using the CellTiter-Glo® 3D Cell Viability Assay (Promega) following the manufacturer's protocol. Luminescence was measured using an EnVision® plate reader (Perkin Elmer).

U-2 OS spheroids = assay: 3D spheroid viability; assay type: cell-based, human; conditions: 2.5, 5 and 10 µM single dose, 7 days
Procedure: as §3

With `COc1ccc2[nH]c3c(=O)[nH]c4ccc(O)cc4c3c2c1` [Compound 55, 2-Hydroxy-10-methoxy-5,7-dihydro-6H-indolo[2,3-c]quinolin-6-one] the inhibition at 1 µM (STK39 (STLK3)) was 24%, the inhibition at 1 µM (RIPK2) was 13% and the inhibition at 1 µM [1] was 98%. It also gave an inhibition at 1 µM (CLK4) of 100%, an inhibition at 1 µM (MAP2K1 (MEK1)) of 98% and an inhibition at 1 µM (CDK9/cyclin K) of 59%. For the same compound, the inhibition at 1 µM (CDK8/cyclin C) was 40%, the inhibition at 1 µM (AMPK (A2/B2/G1)) was 70% and the inhibition at 1 µM (AMPK (A2/B2/G2)) was 80%. The inhibition at 1 µM (MAPK8 (JNK1)) was 43%, the inhibition at 1 µM (STK33) was 46% and the inhibition at 1 µM (BMPR2) was 116%. The inhibition at 1 µM (ULK3) was 45%, the inhibition at 1 µM (MAP2K2 (MEK2)) was 94% and the inhibition at 1 µM (PKMYT1) was 14%. For the same compound, the inhibition at 1 µM (MAP3K10 (MLK2)) was 20%, the inhibition at 1 µM (TEK (TIE2) R849W) was 11% and the inhibition at 1 µM (TAOK3 (JIK)) was 24%. For the same compound, the inhibition at 1 µM (FGFR3 G697C) was 35%, the inhibition at 1 µM (MAPK10 (JNK3)) was 29% and the inhibition at 1 µM (ALK F1174L) was 33%. The inhibition at 1 µM (MAP2K5 (MEK5)) was 80%, the inhibition at 1 µM (MAP2K4 (MEK4)) was 26% and the inhibition at 1 µM (STK38L (NDR2)) was 8%. For the same compound, the inhibition at 1 µM (MYLK (MLCK)) was 60%, the inhibition at 1 µM (TEK (TIE2) Y1108F) was 6% and the inhibition at 1 µM (MERTK (cMER) A708S) was 31%. The inhibition at 1 µM (RIPK3) was -6%, the inhibition at 1 µM (EPHA7) was 23% and the inhibition at 1 µM (CDK2/cyclin O) was 61%. The inhibition at 1 µM (DMPK) was 63%, the inhibition at 1 µM (HUNK) was 20% and the inhibition at 1 µM (ACVRL1 (ALK1)) was 25%. The “Number of the 486 kinases inhibited by >50%” value (panel of 486 kinases) was 159, the “HCT116 spheroid cell viability” value (HCT116 spheroids) was “marked dose-dependent effect” and the “U-2 OS spheroid cell viability” value (U-2 OS spheroids) was “marked dose-dependent effect”.
